According to patent US20040034071A1, “Thioaryl sulfonamide hydroxamic acid compounds” (priority 1999, published 2004):
pIC50: −log10 of the molar value. Structures can show the parent of a compound that is named as a salt.

Columns and labels:
recombinant human MMP-1 = target: T1, recombinant human MMP-1 (Homo sapiens, UniProt P03956); assay: In vitro metalloprotease inhibition, fluorogenic MCA peptide substrate; format: biochemical; conditions: recombinant human MMP-1, APMA activated; room temperature; substrate 4 μM; 1 percent DMSO
T1 construct: made in house; host or cells: transfected HT-1080 cells (provided by Dr. Howard Welgus, Washington University)
T1 sequence (P03956 100-469): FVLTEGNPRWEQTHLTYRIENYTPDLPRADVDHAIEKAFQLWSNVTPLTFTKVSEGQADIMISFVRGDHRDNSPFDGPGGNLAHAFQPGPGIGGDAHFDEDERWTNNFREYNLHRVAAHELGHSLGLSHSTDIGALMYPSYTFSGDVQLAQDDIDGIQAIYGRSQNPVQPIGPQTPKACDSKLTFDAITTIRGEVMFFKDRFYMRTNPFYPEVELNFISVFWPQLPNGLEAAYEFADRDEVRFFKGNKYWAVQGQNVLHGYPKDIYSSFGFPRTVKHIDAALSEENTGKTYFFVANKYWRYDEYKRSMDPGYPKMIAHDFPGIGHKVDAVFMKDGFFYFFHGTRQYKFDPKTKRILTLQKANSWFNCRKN
Method: (§1) Several of the compounds prepared in the manner described in the previous Examples were assayed for activity by an in vitro assay. Following the procedures of Knight et al., FEBS Lett. 296(3):263 (1992). Briefly, 4-aminophenylmercuric acetate (APMA) or trypsin activated MMPs were incubated with various concentrations of the inhibitor compound at room temperature for 5 minutes.
(§2) More specifically, recombinant human MMP-13 and MMP-1 enzymes were prepared in laboratories of the assignee. MMP-13 was expressed in baculovirus as a proenzyme, and purified first over a heparin agarose column and then over a chelating zinc chloride column. The proenzyme was activated by APMA for use in the assay. MMP-1 expressed in transfected HT-1080 cells was provided by Dr. Howard Welgus of Washington University, St. Louis, Mo. The enzyme was also activated using APMA and was then purified over a hydroxamic acid column.
(§3) The enzyme substrate is a methoxycoumarin-containing polypeptide having the following sequence:
(§4) MCA-ProLeuGlyLeuDpaAlaArgNH^2, wherein MCA is methoxycoumarin and Dpa is 3-(2,4-dinitrophenyl)-L-2,3-diaminopropionyl alanine. This substrate is commercially available from Baychem as product M-1895.
(§5) The buffer used for assays contained 100 mM Tris-HCl, 100 mM NaCl, 10 mM CaCl2 and 0.05 percent polyethyleneglycol (23) lauryl ether at a pH value of 7.5. Assays were carried out at room temperature, and dimethyl sulfoxide (DMSO) at a final concentration of 1 percent was used to dissolve inhibitor compound.
(§6) The assayed inhibitor compound in DMSO/buffer solution was compared to an equal amount of DMSO/buffer with no inhibitor as control using Microfluor™ White Plates (Dynatech). The inhibitor or control solution was maintained in the plate for 10 minutes and the substrate was added to provide a final concentration of 4 μM.
(§7) In the absence of inhibitor activity, a fluorogenic peptide was cleaved at the gly-leu peptide bond, separating the highly fluorogenic peptide from a 2,4-dinitrophenyl quencher, resulting in an increase of fluorescence intensity (excitation at 328 nm/emission at 415 nm). Inhibition was measured as a reduction in fluorescent intensity as a function of inhibitor concentration, using a Perkin Elmer L550 plate reader. The IC50 values were calculated from those values. The results are set forth in the Inhibition Table below, reported in terms of IC50.

recombinant human MMP-13 = target: T2, recombinant human MMP-13 (Homo sapiens, UniProt P45452); assay: as above; format: biochemical; conditions: recombinant human MMP-13, APMA activated; room temperature; substrate 4 μM; 1 percent DMSO
T2 construct: made in house
Method: as §1, §2, §3, §4, §5, §6, §7

[1] = system: solid tumor cancers (colorectal, pancreatic, ovarian, prostate); conditions: cited from earlier work

Compound	pIC50 (recombinant human MMP-1)	pIC50 (recombinant human MMP-13)	rise of cancer-specific antigens used as surrogate markers for biological activity ([1]; Phase I/II, patients with advanced, treatment-refractory solid tumor cancers)	most common drug-related toxicity ([1]; clinical trials, patients)
CC(C)[C@H](C(=O)NO)N(CCN1CCCCC1)S(=O)(=O)c1ccc(Sc2ccccc2)cc1 [Example 8d, N-hydroxy-3-methyl-2R-[[(4-phenylthio)-phenyl]-sulfonyl]-[2-(1-piperidinyl)-ethyl]amino]-butanamide, Monohydrochloride]	6.30	9.00		
O=C(CN(CCN1CCOCC1)S(=O)(=O)c1ccc(SC2CCCCC2)cc1)NO [Example 5f, [[[4-(Cyclohexylthio)phenyl]sulphonyl][2-(4-morpholinyl)ethyl]amino]-N-hydroxyacetamide]	< 5.00	8.80		
O=C(CN(CCN1CCOCC1)S(=O)(=O)c1ccc(Sc2ccccc2)cc1)NO [Example 6e, 2-[[[4-(phenylthio)phenyl]sulphonyl][2-(4-morpholinyl)ethyl]amino]-N-hydroxyacetamide, Hydrochloride]	5.40	10.00		
CNC(=O)[C@@H](NC(=O)[C@H](CC(C)C)[C@H](O)C(=O)NO)C(C)(C)C [marimastat]			dose-related reduction	musculoskeletal pain and stiffness
Cc1cccc(Sc2ccc(S(=O)(=O)N(CCN3CCOCC3)[C@@H](C(=O)NO)C(C)C)cc2)c1 [Example 1g, N-hydroxy-3-methyl-2R-[[[4-[(3-methylphenyl)thio]phenyl]sulfonyl]-[2-(4-morpholinyl)-ethyl]amino]-butanamide, Monohydrochloride]	5.82	8.72		
CC(C)[C@H](C(=O)NO)N(CCN1CCOCC1)S(=O)(=O)c1ccc(Sc2ccccc2)cc1 [Example 7f, N-hydroxy-3-methyl-2R-[[(4-phenylthio)-phenyl]-sulfonyl]-[2-(4-morpholinyl)-ethyl]amino]-butanamide, Monohydrochloride]	6.25	9.52		

Further lines, with some results ahead:

pIC50 (recombinant human MMP-1)	pIC50 (recombinant human MMP-13)	Compound	rise of cancer-specific antigens used as surrogate markers for biological activity ([1]; Phase I/II, patients with advanced, treatment-refractory solid tumor cancers)	most common drug-related toxicity ([1]; clinical trials, patients)
5.70	9.30	Cc1ccc(Sc2ccc(S(=O)(=O)N(CCN3CCOCC3)[C@@H](C(=O)NO)C(C)C)cc2)cc1 [Example 2e, N-hydroxy-3-methyl-2R-[[[4-[(4-methylphenyl)-thio]phenyl]sulfonyl][2-(4-morpholinyl)ethyl]-amino]-butanamide, Monohydrochloride]		
5.74	9.30	C[C@H](C(=O)NO)N(CCN1CCOCC1)S(=O)(=O)c1ccc(Sc2ccccc2)cc1 [Example 3g, N-hydroxy-2R-[[2-(4-morpholinyl)ethyl][[4-(phenylthio)phenyl]sulfonyl]amino]propanamide]		
< 5.00	10.00	Cc1ccc(Sc2ccc(S(=O)(=O)N(CCN3CCOCC3)[C@H](C)C(=O)NO)cc2)cc1 [Example 4f, N-hydroxy-2R-[[2-(4-morpholinyl)ethyl][[4-[(4-methylphenyl)thio]phenyl]sulfonyl]-amino]-propanamide, Monohydrochloride]		
